Source: PMC4890880 (ACS infectious diseases, 2016)
Like-named read-outs stand apart in the source and are kept apart here.

Tests used:
[1] = test system: Plasmodium berghei (Pb-Luc) exoerythrocytic-stage parasites; conditions: for IC50: read-out: PbLuc_IC50
[2] = test system: HepG2-A16-CD81EGFP cells; conditions: for IC50: read-out: Tox_IC50, HepG2 cytotoxicity
[3] = 2nd round, maximal inhibition in dose series
[4] = first series of columns, fraction of control
[5] = second series of columns (replicate), fraction of control
[6] = sheet 2nd round, maximal inhibition in dose response

COc1ccc(NC(=O)N(C)C[C@H]2Oc3ccc(NC(=O)Nc4cccc5ccccc45)cc3CC(=O)N([C@@H](C)CO)C[C@@H]2C)cc1 [BRD-K15104969-001-01-5]
PbLuc_max_inhibition (%) [1, 3]: 44%
normalized signal at 0.000508053 (first series) ([1]; concentration 0.000508053, first replicate series, fraction of control): 0.969
normalized signal at 0.000508053 (second series) ([1]; concentration 0.000508053, second replicate series, fraction of control): 0.7927
normalized signal at 0.00152416 (first series) ([1]; concentration 0.00152416, first replicate series, fraction of control): 1.086
normalized signal at 0.00152416 (second series) ([1]; concentration 0.00152416, second replicate series, fraction of control): 0.9921
normalized signal at 0.00457247 (first series) ([1]; concentration 0.00457247, first replicate series, fraction of control): 0.8915
normalized signal at 0.00457247 (second series) ([1]; concentration 0.00457247, second replicate series, fraction of control): 0.8364
normalized signal at 0.0137174 (first series) ([1]; concentration 0.0137174, first replicate series, fraction of control): 1.267
normalized signal at 0.0137174 (second series) ([1]; concentration 0.0137174, second replicate series, fraction of control): 0.9174
normalized signal at 0.0411523 (first series) ([1]; concentration 0.0411523, first replicate series, fraction of control): 0.9934
normalized signal at 0.0411523 (second series) ([1]; concentration 0.0411523, second replicate series, fraction of control): 0.8265
normalized signal at 0.123457 (first series) ([1]; concentration 0.123457, first replicate series, fraction of control): 1.28
normalized signal at 0.123457 (second series) ([1]; concentration 0.123457, second replicate series, fraction of control): 0.8011
normalized signal at 0.37037 (first series) ([1]; concentration 0.37037, first replicate series, fraction of control): 0.9047
normalized signal at 0.37037 (second series) ([1]; concentration 0.37037, second replicate series, fraction of control): 0.8073
normalized signal at 1.11111 (first series) ([1]; concentration 1.11111, first replicate series, fraction of control): 0.8441
normalized signal at 1.11111 (second series) ([1]; concentration 1.11111, second replicate series, fraction of control): 0.8236
normalized signal at 3.33333 (first series) ([1]; concentration 3.33333, first replicate series, fraction of control): 0.7436
normalized signal at 3.33333 (second series) ([1]; concentration 3.33333, second replicate series, fraction of control): 1.005
normalized signal at 10 (first series) ([1]; concentration 10, first replicate series, fraction of control): 0.5627
normalized signal at 10 (second series) ([1]; concentration 10, second replicate series, fraction of control): 0.5558
IC50 ([1]; 2nd round, Broad DOS compounds, unit not printed (dose series head 10 to 0.000508053)): > 10 µM
Tox_max_inhibition (%) [2, 3]: 14%
IC50 ([2]; 2nd round, unit inferred): > 10 µM

O=C(Nc1ccc2c(c1)[C@@H]1C[C@@H](CC(=O)N3CCc4ccccc4C3)O[C@@H](CO)[C@@H]1O2)c1ccc2c(c1)OCO2 [BRD-K15778794-001-01-7]
normalized signal at concentration 0.000508053 [1, 4]: 1.025
normalized signal at concentration 0.00152416 [1, 4]: 1.17
normalized signal at concentration 0.00457247 [1, 4]: 0.8971
normalized signal at concentration 0.0137174 [1, 4]: 1.186
normalized signal at concentration 0.0411523 [1, 4]: 1.0917
normalized signal at concentration 0.123457 [1, 4]: 0.8992
normalized signal at concentration 0.37037 [1, 4]: 1.075
normalized signal at concentration 1.11111 [1, 4]: 1.105
normalized signal at concentration 3.33333 [1, 4]: 0.9056
normalized signal at concentration 10 [1, 4]: 0.4372
IC50 ([1]; sheet 2nd round, Pb-Luc exoerythrocytic stage, 10-point dose response, top concentration 10): > 10 µM
normalized signal at concentration 0.000508053 [1, 5]: 0.9828
normalized signal at concentration 0.00152416 [1, 5]: 0.8672
normalized signal at concentration 0.00457247 [1, 5]: 0.9127
normalized signal at concentration 0.0137174 [1, 5]: 0.911
normalized signal at concentration 0.0411523 [1, 5]: 0.8229
normalized signal at concentration 0.123457 [1, 5]: 0.8258
normalized signal at concentration 0.37037 [1, 5]: 0.9225
normalized signal at concentration 1.11111 [1, 5]: 1.043
normalized signal at concentration 3.33333 [1, 5]: 0.8183
normalized signal at concentration 10 [1, 5]: 0.6797
PbLuc_max_inhibition (%) [1, 6]: 56%
IC50 ([2]; sheet 2nd round): > 10 µM
Tox_max_inhibition (%) [2, 6]: 18%
